Measurements published in ChEMBL document CHEMBL1201862, “PubChem BioAssay data set” (2004).
Activity calls are given as the source filed them.

How the values were obtained:
[1] = target: T1, Hexokinase HKDC1 (Homo sapiens, UniProt Q2TB90); experiment: inhibition of HKDC1 glucose phosphorylation – biochemical, W721R variant, dose response (AID 504729); format: functional
T1 sequence (Q2TB90 whole entry): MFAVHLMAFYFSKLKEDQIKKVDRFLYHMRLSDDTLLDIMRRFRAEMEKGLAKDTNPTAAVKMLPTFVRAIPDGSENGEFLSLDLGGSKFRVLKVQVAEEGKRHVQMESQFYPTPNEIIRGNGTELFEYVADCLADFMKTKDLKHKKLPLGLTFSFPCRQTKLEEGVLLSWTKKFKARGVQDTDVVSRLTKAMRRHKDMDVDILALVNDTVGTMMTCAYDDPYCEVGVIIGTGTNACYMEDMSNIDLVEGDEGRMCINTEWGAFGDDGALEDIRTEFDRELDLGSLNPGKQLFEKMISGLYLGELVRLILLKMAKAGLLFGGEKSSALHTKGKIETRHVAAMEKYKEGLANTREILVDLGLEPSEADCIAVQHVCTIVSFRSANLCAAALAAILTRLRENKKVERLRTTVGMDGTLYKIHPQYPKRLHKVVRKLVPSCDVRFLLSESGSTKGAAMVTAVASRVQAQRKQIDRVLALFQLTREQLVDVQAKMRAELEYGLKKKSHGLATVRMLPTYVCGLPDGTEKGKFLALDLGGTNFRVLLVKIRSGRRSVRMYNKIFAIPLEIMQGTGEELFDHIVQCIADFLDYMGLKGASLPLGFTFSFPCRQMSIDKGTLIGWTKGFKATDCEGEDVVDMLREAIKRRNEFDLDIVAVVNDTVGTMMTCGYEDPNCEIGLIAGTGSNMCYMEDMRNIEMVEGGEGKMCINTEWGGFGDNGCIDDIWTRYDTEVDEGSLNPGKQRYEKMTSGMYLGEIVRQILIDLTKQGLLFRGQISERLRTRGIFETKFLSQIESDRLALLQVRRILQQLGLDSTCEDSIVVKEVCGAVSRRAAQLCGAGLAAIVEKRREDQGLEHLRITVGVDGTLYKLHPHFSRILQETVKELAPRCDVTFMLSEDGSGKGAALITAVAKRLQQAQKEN

[2] = target: Cystic fibrosis transmembrane conductance regulator/Golgi-associated PDZ and coiled-coil motif-containing protein (Homo sapiens, UniProt P13569+Q9HD26); experiment: potency against CAL PDZ-peptide interaction – biochemical, fluorescence polarization, Cerulean-tagged CAL PDZ, cherry-picks, dose response (AID 504773)
[3] = target: Eukaryotic translation initiation factor 4E (Mus musculus, UniProt P63073); experiment: blockers of eIF4G binding by eIF4E – biochemical, TR-FRET, dose response (AID 855); format: functional;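 also: potency for disrupting eIF4E binding to eIF4GI seen as loss of FRET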
[4] = blockers of CAL PDZ ligand groove binding – biochemical, fluorescence polarization, untagged CAL PDZ, cherry-pick, dose response (AID 602267); format: functional
[5] = target: T2, Protein RecA (Mycobacterium tuberculosis, UniProt P9WHJ3); experiment: Fluorescence Cell-Free Homogeneous Dose Retest to Identify Inhibitors of RecA-Intein Splicing Activity. [Related pubchem assays (depositor defined):AID2097, AID2223, AID489010, AID492950]; format: functional
T2 sequence (P9WHJ3 whole entry): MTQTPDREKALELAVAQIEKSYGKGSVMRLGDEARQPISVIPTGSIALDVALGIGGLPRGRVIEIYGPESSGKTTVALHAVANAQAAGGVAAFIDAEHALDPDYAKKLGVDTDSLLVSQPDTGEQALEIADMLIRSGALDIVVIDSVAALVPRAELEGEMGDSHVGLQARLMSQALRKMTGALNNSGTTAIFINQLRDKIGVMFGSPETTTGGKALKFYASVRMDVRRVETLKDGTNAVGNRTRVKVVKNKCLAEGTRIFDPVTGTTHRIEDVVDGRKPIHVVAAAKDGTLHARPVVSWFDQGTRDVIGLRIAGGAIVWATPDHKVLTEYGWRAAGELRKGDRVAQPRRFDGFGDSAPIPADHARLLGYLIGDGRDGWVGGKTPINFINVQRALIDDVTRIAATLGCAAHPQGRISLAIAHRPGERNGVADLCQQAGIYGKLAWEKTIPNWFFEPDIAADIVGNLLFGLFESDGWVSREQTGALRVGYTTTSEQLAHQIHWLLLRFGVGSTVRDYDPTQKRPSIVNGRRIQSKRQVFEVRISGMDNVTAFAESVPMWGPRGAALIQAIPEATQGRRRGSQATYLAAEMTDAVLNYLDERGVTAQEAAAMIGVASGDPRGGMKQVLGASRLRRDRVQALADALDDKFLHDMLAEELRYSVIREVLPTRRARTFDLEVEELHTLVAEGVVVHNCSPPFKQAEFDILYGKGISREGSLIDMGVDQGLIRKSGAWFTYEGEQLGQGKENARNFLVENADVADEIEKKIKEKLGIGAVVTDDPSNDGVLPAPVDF

[6] = target: T3, Replicative DNA helicase DnaB (Mycobacterium tuberculosis, UniProt P9WMR3); experiment: DnaB intein splicing inhibitors, dose response, biochemical, cell-free fluorescence (AID 449749); format: functional
T3 sequence (P9WMR3 whole entry): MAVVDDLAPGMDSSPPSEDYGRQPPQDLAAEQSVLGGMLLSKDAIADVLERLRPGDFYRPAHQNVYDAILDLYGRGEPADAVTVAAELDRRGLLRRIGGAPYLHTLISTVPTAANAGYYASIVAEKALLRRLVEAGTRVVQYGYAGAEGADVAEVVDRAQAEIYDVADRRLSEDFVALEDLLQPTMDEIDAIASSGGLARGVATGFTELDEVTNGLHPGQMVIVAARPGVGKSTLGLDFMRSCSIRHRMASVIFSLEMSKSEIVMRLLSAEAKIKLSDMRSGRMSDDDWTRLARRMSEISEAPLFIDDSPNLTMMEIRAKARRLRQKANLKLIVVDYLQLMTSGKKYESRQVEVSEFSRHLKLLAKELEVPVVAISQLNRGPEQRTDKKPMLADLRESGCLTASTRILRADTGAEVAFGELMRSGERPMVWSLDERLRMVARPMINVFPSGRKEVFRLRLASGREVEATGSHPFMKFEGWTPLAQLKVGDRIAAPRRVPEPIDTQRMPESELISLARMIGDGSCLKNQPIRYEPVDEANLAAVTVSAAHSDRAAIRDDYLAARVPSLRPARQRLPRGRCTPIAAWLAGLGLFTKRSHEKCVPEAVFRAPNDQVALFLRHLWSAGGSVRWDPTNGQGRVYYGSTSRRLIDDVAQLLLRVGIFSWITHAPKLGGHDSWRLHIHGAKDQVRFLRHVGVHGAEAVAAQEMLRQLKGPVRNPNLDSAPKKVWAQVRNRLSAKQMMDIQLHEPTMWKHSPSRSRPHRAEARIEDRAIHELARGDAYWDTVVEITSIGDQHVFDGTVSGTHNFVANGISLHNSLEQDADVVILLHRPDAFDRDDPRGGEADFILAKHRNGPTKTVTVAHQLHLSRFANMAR

Chain of Eukaryotic translation initiation factor 4E (P63073 whole entry): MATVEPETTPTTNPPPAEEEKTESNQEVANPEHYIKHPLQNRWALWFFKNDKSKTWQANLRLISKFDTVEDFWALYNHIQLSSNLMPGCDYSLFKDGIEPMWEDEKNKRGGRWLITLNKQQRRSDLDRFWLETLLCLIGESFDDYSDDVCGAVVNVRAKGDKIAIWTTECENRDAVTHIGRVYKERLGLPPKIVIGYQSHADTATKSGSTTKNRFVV
Chain of Cystic fibrosis transmembrane conductance regulator/Golgi-associated PDZ and coiled-coil motif-containing protein (P13569 whole entry, other chains not shown): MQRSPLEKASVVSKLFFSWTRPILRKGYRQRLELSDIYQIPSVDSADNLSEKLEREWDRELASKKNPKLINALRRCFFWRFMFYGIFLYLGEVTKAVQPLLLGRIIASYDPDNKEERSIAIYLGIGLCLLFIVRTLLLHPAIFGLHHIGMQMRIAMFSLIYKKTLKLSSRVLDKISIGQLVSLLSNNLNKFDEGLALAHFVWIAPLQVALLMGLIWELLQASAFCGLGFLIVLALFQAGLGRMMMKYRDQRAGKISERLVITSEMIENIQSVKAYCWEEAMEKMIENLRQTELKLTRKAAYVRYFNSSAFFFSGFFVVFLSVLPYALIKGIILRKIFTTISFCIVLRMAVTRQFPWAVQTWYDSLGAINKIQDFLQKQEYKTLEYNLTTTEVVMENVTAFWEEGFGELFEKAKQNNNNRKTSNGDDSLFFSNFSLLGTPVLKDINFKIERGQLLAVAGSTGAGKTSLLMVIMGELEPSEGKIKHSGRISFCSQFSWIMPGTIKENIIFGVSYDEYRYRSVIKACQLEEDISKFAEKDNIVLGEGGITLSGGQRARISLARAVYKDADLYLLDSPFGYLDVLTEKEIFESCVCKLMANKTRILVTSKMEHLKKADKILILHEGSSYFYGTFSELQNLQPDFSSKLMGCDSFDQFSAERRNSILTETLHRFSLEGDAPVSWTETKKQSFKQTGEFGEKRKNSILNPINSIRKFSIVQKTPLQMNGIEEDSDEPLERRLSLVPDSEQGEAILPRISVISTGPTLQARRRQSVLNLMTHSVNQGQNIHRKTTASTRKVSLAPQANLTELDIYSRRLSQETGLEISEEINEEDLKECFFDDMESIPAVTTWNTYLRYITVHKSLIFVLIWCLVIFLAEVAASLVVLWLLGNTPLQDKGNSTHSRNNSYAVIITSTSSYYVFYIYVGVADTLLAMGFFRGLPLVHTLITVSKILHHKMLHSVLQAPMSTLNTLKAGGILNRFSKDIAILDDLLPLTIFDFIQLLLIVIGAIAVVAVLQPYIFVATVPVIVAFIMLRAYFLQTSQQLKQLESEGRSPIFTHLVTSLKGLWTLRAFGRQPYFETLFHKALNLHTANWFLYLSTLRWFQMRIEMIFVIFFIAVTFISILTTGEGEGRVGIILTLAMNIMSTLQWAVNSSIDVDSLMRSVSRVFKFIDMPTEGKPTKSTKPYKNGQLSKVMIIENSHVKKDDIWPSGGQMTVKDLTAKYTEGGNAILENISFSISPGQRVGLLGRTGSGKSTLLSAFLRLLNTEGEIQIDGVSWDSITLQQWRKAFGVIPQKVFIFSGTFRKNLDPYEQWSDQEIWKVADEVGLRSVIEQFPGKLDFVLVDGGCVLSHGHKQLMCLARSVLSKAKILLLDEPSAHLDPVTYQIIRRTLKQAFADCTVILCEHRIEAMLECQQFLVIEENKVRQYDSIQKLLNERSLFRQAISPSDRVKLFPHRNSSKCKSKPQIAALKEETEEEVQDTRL

O=c1c2ccccc2nc2n1CCC2 [DEOXYVASICINONE]
active: IC50 [1] 4.32 µM | AC50 [2] 21.3 µM | IC50 [3] 6.2 µM | AC50 [4] 60.4 µM | EC50 [5] 11.6 µM | AC50 [6] 13.3 µM
